Measurements as given in ChEMBL document CHEMBL1201862, “PubChem BioAssay data set” (2004).
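Grown in 96-well plates, cells were treated for 48 hours with each compound at five concentrations. Insufficient inhibition: endpoint recorded as highest concentration tested. GI50: concentration for 50% inhibition of growth.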 Active and inactive are the calls of the source. Cut-off read from the data, not from the text of the source: active = GI50 up to about 1.1 µM and inactive = higher.

Columns and labels:
Test in all cases: NCI-60 cell line screen, 48 h
[1] = tested on: A498
[2] = tested on: ACHN
[3] = tested on: CAKI-1
[4] = tested on: COLO 205
[5] = tested on: EKVX
[6] = tested on: HCC 2998
[7] = tested on: LOX IMVI
[8] = tested on: MCF7
[9] = tested on: MDA-MB-435
[10] = tested on: MDA-N
[11] = tested on: NCI-H522
[12] = tested on: NCI/ADR-RES
[13] = tested on: OVCAR-5
[14] = tested on: PC-3
[15] = tested on: RPMI-8226
[16] = tested on: SF-539
[17] = tested on: SK-MEL-2
[18] = tested on: UO-31
[19] = tested on: SR

Structure (SMILES)	GI50 [1]	GI50 [2]	GI50 [3]	GI50 [4]	GI50 [5]	GI50 [6]	GI50 [7]	GI50 [8]	GI50 [9]	GI50 [10]	GI50 [11]	GI50 [12]	GI50 [13]	GI50 [14]	GI50 [15]	GI50 [16]	GI50 [17]	GI50 [18]	GI50 [19]
CC(C)=C/C=C1/CS(=O)(=O)C=C1C	> 100 µM (inactive)	> 100 µM (inactive)	> 100 µM (inactive)	> 100 µM (inactive)	> 100 µM (inactive)	> 100 µM (inactive)	> 100 µM (inactive)	> 100 µM (inactive)	> 100 µM (inactive)	> 100 µM (inactive)	> 100 µM (inactive)	> 100 µM (inactive)	> 100 µM (inactive)	> 100 µM (inactive)	> 100 µM (inactive)	> 100 µM (inactive)	> 100 µM (inactive)	> 100 µM (inactive)	–
C/C(=C\c1ccccn1)c1ccccn1	> 100 µM (inactive)	> 100 µM (inactive)	> 100 µM (inactive)	> 100 µM (inactive)	> 100 µM (inactive)	> 100 µM (inactive)	–	> 100 µM (inactive)	> 100 µM (inactive)	> 100 µM (inactive)	> 100 µM (inactive)	> 100 µM (inactive)	> 100 µM (inactive)	> 100 µM (inactive)	> 100 µM (inactive)	–	> 100 µM (inactive)	> 100 µM (inactive)	–
O=c1/c(=C/c2ccc(-c3ccc(Cl)cc3Cl)o2)sc2n1[C@@H](c1ccc3c(c1)OCO3)C=C(c1cc(F)c(Cl)cc1Cl)N=2	2.26 µM (inactive)	69.2 µM (inactive)	> 100 µM (inactive)	38.7 µM (inactive)	–	–	34.8 µM (inactive)	26 µM (inactive)	33.2 µM (inactive)	37.8 µM (inactive)	49.1 µM (inactive)	45.9 µM (inactive)	58.7 µM (inactive)	69 µM (inactive)	26.1 µM (inactive)	35.3 µM (inactive)	26 µM (inactive)	31.7 µM (inactive)	–
Cc1csc2nc(-c3cccc([N+](=O)[O-])c3)c(/C=N/N=C(N)N)n12	0.933 µM (active)	1.8 µM (inactive)	2.73 µM (inactive)	1.78 µM (inactive)	1.55 µM (inactive)	< 0.01 µM (active)	1.81 µM (inactive)	1.82 µM (inactive)	1.66 µM (inactive)	1.67 µM (inactive)	1.83 µM (inactive)	6.27 µM (inactive)	1.63 µM (inactive)	1.63 µM (inactive)	1.86 µM (inactive)	2.29 µM (inactive)	1.77 µM (inactive)	1.39 µM (inactive)	–
COc1ccc(N2C(=O)CC(=O)N(C(=O)COc3ccc(OCC(=O)N4C(=O)CC(=O)N(c5ccc(OC)cc5)C4=S)cc3)C2=S)cc1	61.7 µM (inactive)	42.1 µM (inactive)	0.718 µM (active)	18.9 µM (inactive)	92.9 µM (inactive)	32.3 µM (inactive)	–	31.1 µM (inactive)	36.9 µM (inactive)	37.8 µM (inactive)	35.5 µM (inactive)	66.4 µM (inactive)	> 100 µM (inactive)	41 µM (inactive)	19.6 µM (inactive)	–	23.9 µM (inactive)	42.5 µM (inactive)	–
COC(CN(C=O)[C@@H](c1ccc(Cl)cc1)c1cc2ccccc2o1)OC	18.9 µM (inactive)	20.8 µM (inactive)	15.8 µM (inactive)	17.6 µM (inactive)	15.8 µM (inactive)	–	16.3 µM (inactive)	15.5 µM (inactive)	18.5 µM (inactive)	17.1 µM (inactive)	14.5 µM (inactive)	18.3 µM (inactive)	15.8 µM (inactive)	17.3 µM (inactive)	16 µM (inactive)	17.9 µM (inactive)	16.7 µM (inactive)	16.5 µM (inactive)	–
CN1c2ccccc2S(=O)(=O)n2c(COc3ccccc3)nnc21	57.8 µM (inactive)	> 100 µM (inactive)	> 100 µM (inactive)	> 100 µM (inactive)	> 100 µM (inactive)	> 100 µM (inactive)	> 100 µM (inactive)	> 100 µM (inactive)	> 100 µM (inactive)	> 100 µM (inactive)	56.8 µM (inactive)	> 100 µM (inactive)	> 100 µM (inactive)	> 100 µM (inactive)	–	62.8 µM (inactive)	> 100 µM (inactive)	> 100 µM (inactive)	–
Cc1cccc2nc(-c3ccccc3)cc(=O)n12	–	43.1 µM (inactive)	–	> 100 µM (inactive)	7.26 µM (inactive)	> 100 µM (inactive)	–	50.2 µM (inactive)	> 10 µM (inactive)	> 100 µM (inactive)	58.9 µM (inactive)	44.9 µM (inactive)	> 100 µM (inactive)	43.7 µM (inactive)	> 100 µM (inactive)	> 100 µM (inactive)	–	–	87.5 µM (inactive)
Cc1ccc(/C=N/Nc2ncccn2)s1	–	> 100 µM (inactive)	> 100 µM (inactive)	> 100 µM (inactive)	> 100 µM (inactive)	> 100 µM (inactive)	> 100 µM (inactive)	> 100 µM (inactive)	> 100 µM (inactive)	> 100 µM (inactive)	> 100 µM (inactive)	> 100 µM (inactive)	> 100 µM (inactive)	> 100 µM (inactive)	> 100 µM (inactive)	> 100 µM (inactive)	> 100 µM (inactive)	> 100 µM (inactive)	–
FC1=C2C3CCC(C3)C2C1(F)F (configuration not stated)	> 100 µM (inactive)	> 100 µM (inactive)	> 100 µM (inactive)	> 100 µM (inactive)	> 100 µM (inactive)	> 100 µM (inactive)	> 100 µM (inactive)	> 100 µM (inactive)	> 100 µM (inactive)	> 100 µM (inactive)	> 100 µM (inactive)	> 100 µM (inactive)	> 100 µM (inactive)	> 100 µM (inactive)	> 100 µM (inactive)	> 100 µM (inactive)	> 100 µM (inactive)	> 100 µM (inactive)	–
COc1ccc(/C=C2\Sc3nnc(C)n3N=C2c2cc(F)c(Cl)cc2Cl)cc1OC	19.3 µM (inactive)	12.6 µM (inactive)	8.13 µM (inactive)	22.3 µM (inactive)	10.8 µM (inactive)	17.6 µM (inactive)	13.8 µM (inactive)	5.87 µM (inactive)	10.4 µM (inactive)	5.32 µM (inactive)	11.3 µM (inactive)	14.6 µM (inactive)	15.6 µM (inactive)	18.7 µM (inactive)	2.58 µM (inactive)	17 µM (inactive)	15.9 µM (inactive)	10.4 µM (inactive)	–
CC1=CC(C)(C)NN1C1=NS(=O)(=O)c2ccccc2N1C	> 100 µM (inactive)	> 100 µM (inactive)	> 100 µM (inactive)	> 100 µM (inactive)	> 100 µM (inactive)	> 100 µM (inactive)	> 100 µM (inactive)	> 100 µM (inactive)	> 100 µM (inactive)	> 100 µM (inactive)	> 100 µM (inactive)	> 100 µM (inactive)	> 100 µM (inactive)	> 100 µM (inactive)	–	> 100 µM (inactive)	> 100 µM (inactive)	78.3 µM (inactive)	–
